# Measurements published in ChEMBL document CHEMBL5352398 (Eur J Med Chem, 2022).
# The source made the active and inactive calls. The calls are words filed in the database; no cut-off is given here.
# Legend:
# [1] = target: T1, Solute carrier family 22 member 12 (Homo sapiens, UniProt Q96S37); test: Inhibition of human URAT1 stably overexpressing in human HEK293 cells assessed as inhibition of 14C-uric acid uptake preincubated for 30 mins followed by substrate addition and measured after 15 mins using 14C-uric acid as substrate by liquid scintillation counting analysis; format: cell-based
# T1 sequence (Q96S37 whole entry): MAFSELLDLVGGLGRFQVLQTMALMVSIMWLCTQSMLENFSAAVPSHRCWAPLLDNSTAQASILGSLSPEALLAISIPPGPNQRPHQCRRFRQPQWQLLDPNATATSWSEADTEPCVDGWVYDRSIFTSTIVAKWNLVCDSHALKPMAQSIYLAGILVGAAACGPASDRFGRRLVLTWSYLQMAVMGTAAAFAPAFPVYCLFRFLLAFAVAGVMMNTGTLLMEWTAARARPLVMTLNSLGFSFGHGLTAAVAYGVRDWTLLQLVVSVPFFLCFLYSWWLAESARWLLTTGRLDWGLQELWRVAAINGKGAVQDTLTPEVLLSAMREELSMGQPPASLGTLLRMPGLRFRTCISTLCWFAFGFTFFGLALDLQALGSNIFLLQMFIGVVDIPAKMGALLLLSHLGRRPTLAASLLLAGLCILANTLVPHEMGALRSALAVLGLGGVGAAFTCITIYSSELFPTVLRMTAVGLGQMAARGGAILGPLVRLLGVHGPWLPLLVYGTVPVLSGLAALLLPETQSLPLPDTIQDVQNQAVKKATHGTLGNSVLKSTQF
# Mus musculus = test: Anti-hyperuricemic activity against potassium oxonate induced hyperuricemia in Kunming mouse model assessed as decrease in serum urate level at 2 mg/kg, po and measured after 3 hrs; format: functional, organism-based
# [2] = Hepatotoxicity in Kunming mouse assessed as increase in AST level in serum at 50 mg/kg,po for 14 days in presence of BSO; format: toxicity, organism-based; conditions: in vivo, 336 h, time 14 day
# [3] = Renal toxicity in Kunming mouse assessed as effect on creatinine level at 50 mg/kg,po for 14 days; format: organism-based; conditions: in vivo, 336 h, time 14 day
# [4] = target: T2, Solute carrier family 2, facilitated glucose transporter member 9 (Mus musculus, UniProt Q3T9X0); test: Inhibition of mouse GLUT9 transfected in human HEK293 cells assessed as inhibition of uric acid induced current by cell patch-clamp assay; format: cell-based
# T2 sequence (Q3T9X0 whole entry): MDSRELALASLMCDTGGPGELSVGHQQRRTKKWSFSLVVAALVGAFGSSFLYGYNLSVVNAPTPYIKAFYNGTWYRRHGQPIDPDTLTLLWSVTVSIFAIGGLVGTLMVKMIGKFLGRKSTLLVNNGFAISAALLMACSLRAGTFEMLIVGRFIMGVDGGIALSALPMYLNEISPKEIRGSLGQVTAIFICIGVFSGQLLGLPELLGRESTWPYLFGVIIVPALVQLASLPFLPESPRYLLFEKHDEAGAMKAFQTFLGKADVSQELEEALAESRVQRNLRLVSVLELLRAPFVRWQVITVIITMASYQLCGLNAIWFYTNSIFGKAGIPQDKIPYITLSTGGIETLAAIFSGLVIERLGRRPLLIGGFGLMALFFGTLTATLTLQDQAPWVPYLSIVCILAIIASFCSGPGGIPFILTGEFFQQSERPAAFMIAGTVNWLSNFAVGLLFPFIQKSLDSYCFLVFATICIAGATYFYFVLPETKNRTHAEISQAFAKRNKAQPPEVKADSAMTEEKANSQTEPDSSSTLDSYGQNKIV
# [5] = target: T3, Solute carrier family 22 member 6 (Homo sapiens, UniProt Q4U2R8); test: Inhibition of OAT1 (unknown origin) transfected in HEK293 cells assessed as inhibition of 6-CFL uptake preincubated for 30 mins followed by 6-CFL addition and measured for 15 mins by fluorescence based microplate reader analysis; format: cell-based
# T3 sequence (Q4U2R8 whole entry): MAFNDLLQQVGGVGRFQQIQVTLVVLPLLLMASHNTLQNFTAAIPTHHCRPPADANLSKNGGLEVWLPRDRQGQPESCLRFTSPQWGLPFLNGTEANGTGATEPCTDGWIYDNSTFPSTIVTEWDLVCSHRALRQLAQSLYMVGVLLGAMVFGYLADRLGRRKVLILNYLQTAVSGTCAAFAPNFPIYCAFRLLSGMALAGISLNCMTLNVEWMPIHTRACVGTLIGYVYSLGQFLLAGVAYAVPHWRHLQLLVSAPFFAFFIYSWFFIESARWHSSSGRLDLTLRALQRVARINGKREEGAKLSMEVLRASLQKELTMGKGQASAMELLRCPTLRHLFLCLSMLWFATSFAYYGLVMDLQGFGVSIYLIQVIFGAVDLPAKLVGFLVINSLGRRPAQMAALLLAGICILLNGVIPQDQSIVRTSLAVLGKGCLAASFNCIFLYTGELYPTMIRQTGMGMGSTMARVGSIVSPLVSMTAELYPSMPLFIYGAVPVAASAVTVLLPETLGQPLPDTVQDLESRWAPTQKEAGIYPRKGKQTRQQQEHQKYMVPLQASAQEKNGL
# [6] = Tmax in Sprague-Dawley rat at 5 mg/kg, po and measured upto 24 hrs by LC-MS/MS analysis; format: ADME, organism-based; conditions: in vivo
# [7] = Tmax in Sprague-Dawley rat at 5 mg/kg, iv and measured upto 24 hrs by LC-MS/MS analysis; format: ADME, organism-based; conditions: in vivo
# [8] = Cmax in Sprague-Dawley rat at 5 mg/kg, po and measured upto 24 hrs by LC-MS/MS analysis; format: ADME, organism-based; set-up: dose 5 mg/kg, time < 24 hrs, route po; conditions: in vivo
# [9] = Cmax in Sprague-Dawley rat at 5 mg/kg, iv and measured upto 24 hrs by LC-MS/MS analysis; format: ADME, organism-based; set-up: time < 24 hrs, dose 5 mg/kg, route iv; conditions: in vivo
# [10] = Half life in Sprague-Dawley rat at 5 mg/kg, po and measured upto 24 hrs by LC-MS/MS analysis; format: ADME, organism-based; conditions: in vivo
# [11] = Half life in Sprague-Dawley rat at 5 mg/kg, iv and measured upto 24 hrs by LC-MS/MS analysis; format: ADME, organism-based; conditions: in vivo
# [12] = AUC(0 to infinity) in Sprague-Dawley rat at 5 mg/kg, po and measured upto 24 hrs by LC-MS/MS analysis; format: ADME, organism-based; set-up: time < 24 hrs, dose 5 mg/kg, route po; conditions: in vivo
# [13] = AUC(0 to infinity) in Sprague-Dawley rat at 5 mg/kg, iv and measured upto 24 hrs by LC-MS/MS analysis; format: ADME, organism-based; set-up: dose 5 mg/kg, time < 24 hrs, route iv; conditions: in vivo
# [14] = MRT (0 to infinity) in Sprague-Dawley rat at 5 mg/kg, po and measured upto 24 hrs by LC-MS/MS analysis; format: ADME, organism-based; conditions: in vivo
# [15] = MRT (0 to infinity) in Sprague-Dawley rat at 5 mg/kg, iv and measured upto 24 hrs by LC-MS/MS analysis; format: ADME, organism-based; conditions: in vivo
# [16] = Oral bioavailability in Sprague-Dawley rat at 5 mg/kg and measured upto 24 hrs by LCMS analysis; format: ADME, organism-based; conditions: in vivo
# [17] = Subacute toxicity in Kunming mouse assessed as animal death at 50 mg/kg,po for 14 days; format: organism-based; conditions: in vivo, 336 h, time 14 day
# [18] = Subacute toxicity in Kunming mouse assessed as body weight change at 50 mg/kg,po for 14 days; format: organism-based; conditions: in vivo, 336 h, time 14 day
# [19] = Subacute toxicity in Kunming mouse assessed as lethargy at 50 mg/kg,po for 14 days; format: organism-based; conditions: in vivo, 336 h, time 14 day
# [20] = Subacute toxicity in Kunming mouse assessed as clonic convulsion at 50 mg/kg,po for 14 days; format: organism-based; conditions: in vivo, 336 h, time 14 day
# [21] = Subacute toxicity in Kunming mouse assessed as anorexia at 50 mg/kg,po for 14 days; format: organism-based; conditions: in vivo, 336 h, time 14 day
# [22] = Subacute toxicity in Kunming mouse assessed as ruffled fur at 50 mg/kg,po for 14 days; format: organism-based; conditions: in vivo, 336 h, time 14 day
# [23] = Hepatotoxicity in Kunming mouse assessed as increase in ALT level in serum at 50 mg/kg,po for 14 days in presence of BSO; format: toxicity, organism-based; conditions: in vivo, 336 h, time 14 day
# [24] = Renal toxicity in Kunming mouse assessed as effect on BUN level at 50 mg/kg,po for 14 days; format: organism-based; conditions: in vivo, 336 h, time 14 day
# [25] = Toxicity in Kunming mouse assessed as cell arrangements in liver at 50 mg/kg, po administered and measured after 14 days by HE staining; format: organism-based; conditions: in vivo, 336 h, time 14 day
# [26] = Toxicity in Kunming mouse assessed as inflammatory infiltration in liver at 50 mg/kg, po administered and measured after 14 days by HE staining; format: organism-based; conditions: in vivo, 336 h, time 14 day
# [27] = Toxicity in Kunming mouse assessed as appearance of normal tubular structure in kidney at 50 mg/kg, po administered and measured after 14 days by HE staining; format: organism-based; conditions: in vivo, 336 h, time 14 day
# [28] = Toxicity in Kunming mouse assessed as appearance of normal glomerulus cells in kidney at 50 mg/kg, po administered and measured after 14 days by HE staining; format: organism-based; conditions: in vivo, 336 h, time 14 day
# HepG2 = test: Cytotoxicity against human HepG2 cells assessed as reduction in cell viability upto 400 uM incubated for 24 hrs by MTT assay; format: toxicity, cell-based; conditions: hepg2, 24 h
# [29] = Toxicity in Kunming mouse assessed as inflammatory infiltration in kidney at 50 mg/kg, po administered and measured after 14 days by HE staining; format: organism-based; conditions: in vivo, 336 h, time 14 day
structure (smiles),measurement,setting,value
Cc1ccc2c(cnn2C(=O)c2cc(Cl)c(O)c(Cl)c2)c1,IC50,[1],1810 nM
O=C(c1ccc(O)cc1)n1ccc2cccnc21,IC50,[1],1720 nM
O=C(c1cc(Br)c(O)c(Br)c1)n1ccc2cccnc21,IC50,[1],2300 nM
O=C(c1cc(Cl)c(O)c(Cl)c1)n1ccc2c(Cl)ncnc21,IC50,[1],1980 nM
O=C(c1cc(Cl)c(O)c(Cl)c1)n1ccc2cnccc21,IC50,[1],2810 nM
O=C(c1cc(Cl)c(O)c(Cl)c1)N1CCc2cc(Br)ccc21,IC50,[1],2360 nM
COc1cc(C(=O)n2ccc3cccnc32)ccc1O,IC50,[1],2690 nM
O=C(c1ccc(O)c(Br)c1)n1ccc2cccnc21,IC50,[1],3800 nM
O=C(c1cc(Cl)c(O)c(Cl)c1)n1ncc2ccccc21,IC50,[1],2260 nM
O=C(c1cc(Cl)c(O)c(Cl)c1)n1ccc2ncccc21,IC50,[1],1560 nM
O=C(O)CSc1nnc(Br)n1-c1ccc(C2CC2)c2ccccc12,Activity,Mus musculus,Active
CC(C)(Sc1ccncc1-c1ccc(C#N)c2ccccc12)C(=O)O,IC50,[1],130 nM
COc1cc(C(=O)n2ccc3cccnc32)cc(OC)c1O,IC50,[1],4850 nM
Cc1cc(C(=O)n2ccc3cccnc32)cc(C)c1O,IC50,[1],2700 nM
O=C(c1ccc(O)c(F)c1)n1ccc2cccnc21,IC50,[1],2080 nM
O=C(c1ccc(O)c([N+](=O)[O-])c1)n1ccc2cccnc21,IC50,[1],2950 nM
Cc1cc(C(=O)n2ccc3cccnc32)ccc1O,IC50,[1],5830 nM
O=C(c1cc(Cl)c(O)c(Cl)c1)n1cc(Br)c2cccnc21,IC50,[1],1550 nM
CC1Cc2ccccc2N1C(=O)c1cc(Cl)c(O)c(Cl)c1 (stereo unspecified),IC50,[1],1600 nM
O=C(c1cc(Cl)c(O)c(Cl)c1)n1ccc2cccnc21,Activity,[2],Non-Toxic
same,Activity,[3],Non-Toxic
same,IC50,[1],800 nM
same,IC50,[4],> 20000 nM
same,IC50,[5],10200 nM
same,Tmax,[6],0.29 h
same,Tmax,[7],0.52 h
same,Cmax,[8],6830 ng/mL
same,Cmax,[9],18400 ng/mL
same,half-life,[10],4.61 h
same,half-life,[11],6.8 h
same,AUC(0-inf),[12],35300 ng·h/mL
same,AUC(0-inf),[13],63800 ng·h/mL
same,MRT inf,[14],7.27 h
same,MRT inf,[15],9.85 h
same,bioavailability,[16],55.3%
same,Activity,[17],Non-Toxic
same,Activity,[18],Non-Toxic
same,Activity,[19],Non-Toxic
same,Activity,[20],Non-Toxic
same,Activity,[21],Non-Toxic
same,Activity,[22],Non-Toxic
same,Activity,[23],Non-Toxic
same,Activity,[24],Non-Toxic
same,Activity,[25],Non-Toxic
same,Activity,[26],Non-Toxic
same,Activity,[27],Non-Toxic
same,Activity,[28],Non-Toxic
same,Activity,HepG2,Toxic
same,Activity,[29],Non-Toxic
O=C(c1ccc(O)c(Cl)c1)n1ccc2cccnc21,IC50,[1],1580 nM
O=C(c1cc(Cl)c(O)c(Cl)c1)n1ccc2ccncc21,IC50,[1],3220 nM
